Measurements published in patent US7074774B2, “Use of N-acetyl-D-glucosamine in the manufacture of pharmaceutical useful for treating cardio-cerebrovascular anoxemia” (Third Military Medical University Chinese People's …, priority 2001, dated 2006).

How the values were obtained:
[1] = test system: rat with cerebral ischemia and Re-Infusion; assay: Protecting effect in rat with cerebral ischemia and re-infusion (four arteries ligation model); format: in vivo, Wistar rat
Text: The following experimental example is used to illustrate the effect of resisting cardiac and cerebral ischemia as well as oxygen-deficiency, and the low toxicity of the compound of the present invention (the compound of formula (I)). • I. The protecting effect of N-acetyl-D-glucosamine in rat with cerebral ischemia and Re-Infusion • 1. Animal: Wistar rat provided by the 3rd Military Medical University P.R. China. Half of them are male, the other are female. • 2. Method for making model: the model is made by four arteries ligation method to cause the rat to be cerebral ischemia, in which for each rat, the vertebra artery in the vertebra foramen of the second cervical vertebra is blocked by hot coagulation with electric coagulator, then separate the two common carotid artery in the front of it, after that, remain the surgical thread jacket, sewing up. Next day, after the animal is recovered from anesthesia, open the sewing thread in the front of the animal, clamp the two common carotid artery with artery clip, it needs 20 min. in total. […] Grouping: the animals are divided into four groups (eight animals in each group) […]
Astragalus Group: that is, before the animal is treated, administrating Astragalus injection solution by abdominal injection.
Astragalus+N-acetyl-D-glucosanime Group: that is, 30 min before clamping, administrating a mixture injection solution of 0.25 g/kg of N-acetyl-D-glucosanime and 2 g/kg of Astragalus by abdominal injection.
The control Group: not administrating any medicament, but injecting physiological salt solution with the same volume.
The animals in each group are all fed in standard. In the process of operation, please pay attention to asepsis.
Abnormal ratio of the water content in the brain (by dry-wet weight method):
Scoring the symptoms of nerve behavior • 0 score: no symptom of nerve defect, moving normally • 1 score: cannot extend the front claw at the opposite side • 2 score: when walking, the body rotates toward the hemiplegia side • 3 score: the body collapse down toward the hemiplegia side • 4 score: not capable of walking spontaneously, losing consciousness 5.

[2] = test system: mice in oxygen deficiency at normal pressure; assay: Resistance to oxygen-deficiency: model of oxygen deficiency at normal pressure; format: in vivo, mice of Kunming species
Experimental: Experimental research of the resistance to oxygen-deficiency of N-acetyl-Dglucosanime 1. Model of Oxygen Deficiency at Normal Pressure:
The mice were put into a sealed glass desiccator with a volumn of 200 ml and charged with 20 g of sodium lime to observe the survival time.
The mice of Kunming species, provided by the 3rd Military Medical University of P. R. China
Two groups had 24 mice in total, in the experimental group, two weeks before experiment, administrating N-acetyl-D-glucosanime by stomach infusion with a dosage of 0.05 g/kg, in the control group, they were normally fed.

[3] = in vivo
Text: N-acetyl-D-glucosanime can raise the resistance to oxygen deficiency of the small mice. • III. Toxicological test of the compound of formula (I), including: • 1. acute toxicity test: including tests of administrating medicine by oral, intravenous injection and maximum limit amount for administration; • 2. Ames test; • 3. micronucleus test of bone marrow cell of mouse; • 4. abnormal sexual test for the sperm of mouse; • 5. abnormal aberrance test for the chromosin of mouse's testis; • 6. chronic lethal test; • 7. subchronic toxicity (feed for 90 days) test; • 8. traditional aberrance-inducing test;

## CC(=O)N[C@H]1C(O)O[C@H](CO)[C@@H](O)[C@@H]1O (stereo partly drawn) [N-acetyl-D-glucosanime, N-acetyl-D-glucosamine]
[1]; conclusion, dosage 0.025 g/kg
  cerebral edema degree caused by cerebral ischemia and re-infusion: decreased obviously
  corresponding nerve symptoms: released
  survival rate: raised obviously
[1]; dry-wet weight method, medicament before clamping (N-acetyl-D-glucosanime 0.25 g/kg, Astragalus 2 g/kg in mixture), control 70.84%
  Water content of brain: 66.2%
[1]; four arteries ligation, 20 min clamping, medicament before clamping (N-acetyl-D-glucosanime 0.25 g/kg, Astragalus 2 g/kg in mixture), control 62.5%
  Survival: 87.5%
[1]; medicament before clamping (N-acetyl-D-glucosanime 0.25 g/kg, Astragalus 2 g/kg in mixture), control 75%
  Abnormal ratio (symptoms of nerve behavior): 50%
[2]; 0.05 g/kg by stomach infusion, two weeks before experiment, sealed 200 ml desiccator with 20 g sodium lime, versus control group
  Average survival period: much longer than that of the control group
[2]; conclusion
  resistance to oxygen deficiency of the small mice: can raise
[3]
  acute test dosage relative to the injection dosage for human being: 300 times
  dosage taken at which acute toxicosis reaction had not appeared: more than 2 g/kg
[3]; 4 weeks
  maximum dosage with no toxicosis reaction: 1 g/kg
